In PubChem BioAssay AID248 (DTP/NCI, 2004):
Where “and” joins values, the source holds several entries; their conditions need not be identical. Equal values may be shown once. Toxic doses and inconclusive results are not listed.

System: L1210 leukemia ip in BDF1 mice, survival T/C
Assay: NCI In Vivo Anticancer Drug Screen. Data for tumor model L1210 Leukemia (intraperitoneal) in B6D2F1 (BDF1) mice
Settings: endpoint: mean survival time, higher = longer survival
In short: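 Tumor cells were implanted, animals were treated, and survival was followed. The result divides the treated measurement by the vehicle-control measurement.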

[1] = dose: 100.0 mg/kg/injection, schedule: Q01DX001 (ip), vehicle: saline
[2] = dose: 200.0 mg/kg/injection, schedule: Q01DX001 (ip), vehicle: saline
[3] = dose: 400.0 mg/kg/injection, schedule: Q01DX001 (ip), vehicle: saline
[4] = dose: 100.0 mg/kg/injection, schedule: Q04DX002 (ip), vehicle: Klucel (hydroxypropylcellulose) (HPC)
[5] = dose: 200.0 mg/kg/injection, schedule: Q04DX002 (ip), vehicle: Klucel (hydroxypropylcellulose) (HPC)
[6] = dose: 400.0 mg/kg/injection, schedule: Q04DX002 (ip), vehicle: Klucel (hydroxypropylcellulose) (HPC)
[7] = dose: 100.0 mg/kg/injection, schedule: Q04DX003 (ip), vehicle: saline with Tween-80
[8] = dose: 200.0 mg/kg/injection, schedule: Q04DX003 (ip), vehicle: saline with Tween-80
[9] = dose: 400.0 mg/kg/injection, schedule: Q04DX003 (ip), vehicle: saline with Tween-80
[10] = dose: 100.0 mg/kg/injection, schedule: Q01DX009 (ip), vehicle: Klucel (hydroxypropylcellulose) (HPC)
[11] = dose: 200.0 mg/kg/injection, schedule: Q01DX009 (ip), vehicle: Klucel (hydroxypropylcellulose) (HPC)
[12] = dose: 400.0 mg/kg/injection, schedule: Q01DX009 (ip), vehicle: Klucel (hydroxypropylcellulose) (HPC)
[13] = dose: 100.0 mg/kg/injection, schedule: Q04DX003 (ip), vehicle: Klucel (hydroxypropylcellulose) (HPC)
[14] = dose: 200.0 mg/kg/injection, schedule: Q04DX003 (ip), vehicle: Klucel (hydroxypropylcellulose) (HPC)
[15] = dose: 400.0 mg/kg/injection, schedule: Q04DX003 (ip), vehicle: Klucel (hydroxypropylcellulose) (HPC)
[16] = dose: 100.0 mg/kg/injection, schedule: Q04DX002 (ip), vehicle: saline with Tween-80
[17] = dose: 100.0 mg/kg/injection, schedule: Q01DX009 (ip), vehicle: saline
[18] = dose: 200.0 mg/kg/injection, schedule: Q01DX009 (ip), vehicle: saline
[19] = dose: 25.0 mg/kg/injection, schedule: Q04DX002 (ip), vehicle: Klucel (hydroxypropylcellulose) (HPC)
[20] = dose: 50.0 mg/kg/injection, schedule: Q04DX002 (ip), vehicle: Klucel (hydroxypropylcellulose) (HPC)

With COc1ccc(Cc2ccc3[nH]c(=O)cc(C)c3c2)cc1S(=O)(=O)O the T/C [1] was 104 % of control, the T/C [2] was 105 % of control and the T/C [3] was 94 % of control.

In the case of CS(=O)(=O)c1ccccc1, the T/C [4] is reported as 102 % of control, the T/C [5] is reported as 91 % of control and the T/C [6] is reported as 102 % of control.

Cc1ccc(C(C)(C)C)c(OCC2=NCCN2)c1 was tested, and the T/C (dose: 10.0 mg/kg/injection, schedule: Q04DX003 (ip), vehicle: Klucel (hydroxypropylcellulose) (HPC)) was 96 % of control, the T/C (dose: 12.5 mg/kg/injection, schedule: Q01DX009 (ip), vehicle: Klucel (hydroxypropylcellulose) (HPC)) was 86 % of control and the T/C (dose: 20.0 mg/kg/injection, schedule: Q04DX003 (ip), vehicle: Klucel (hydroxypropylcellulose) (HPC)) was 90 % of control. For the same compound, the T/C (dose: 25.0 mg/kg/injection, schedule: Q01DX009 (ip), vehicle: Klucel (hydroxypropylcellulose) (HPC)) was 96 % of control, the T/C (dose: 40.0 mg/kg/injection, schedule: Q04DX003 (ip), vehicle: Klucel (hydroxypropylcellulose) (HPC)) was 96 % of control and the T/C (dose: 50.0 mg/kg/injection, schedule: Q01DX009 (ip), vehicle: Klucel (hydroxypropylcellulose) (HPC)) was 104 % of control.

With CCC(=O)/C(=C\c1ccccc1Cl)C(C)=O the T/C [7] was 111 % of control, the T/C [8] was 117 % of control and the T/C [9] was 93 % of control.

COc1cc(C(=O)NNC(=O)c2cccc(C)c2)cc(OC)c1OC was tested, and the T/C [10] was 100 % of control, the T/C [11] was 95 % of control and the T/C [12] was 105 % of control.

For COc1ccc(C=C2C3C=CC2C2C(=O)OC(=O)C32)cc1 (centres undefined), the T/C [10] was 101 % of control, the T/C [13] was 99 % of control and the T/C [11] was 97 % of control. For the same compound, the T/C [14] was 99 % of control and the T/C [15] was 89 % of control.

NC(C(=O)O)c1cccc(F)c1 (centres undefined) was tested, and the T/C (dose: 50.0 mg/kg/injection, schedule: Q01DX001 (ip), vehicle: saline) was 98 % of control, the T/C [1] was 101 % of control and the T/C [2] was 101 % of control. For the same compound, the T/C [3] was 95 % of control.

CN(C)/C=N/NC(=O)C(O)c1ccccc1 (centres undefined) was tested, and the T/C [7] was 116 % of control, the T/C [8] was 103 % of control and the T/C [9] was 111 % of control.

In the case of CCc1cccc(CC)c1NC(=S)NN, the T/C [16] is reported as 103 % of control.

For C/C(=C\Cl)COC(C)(C)C, the T/C (dose: 100.0 mg/kg/injection, schedule: Q01DX001 (ip), vehicle: saline with Tween-80) was 94 % of control and the T/C (dose: 200.0 mg/kg/injection, schedule: Q01DX001 (ip), vehicle: saline with Tween-80) was 94 % of control.

For CC(C)(C)CC(C)(C)c1ccc(OCCOc2ccccc2NS(=O)(=O)c2ccc(N)cc2)cc1, the T/C (dose: 50.0 mg/kg/injection, schedule: Q01DX009 (ip), vehicle: saline) was 94 % of control, the T/C [17] was 91 % of control and the T/C [18] was 91 % of control.

CCOC(=O)c1cc(C(=O)OCC)c(=O)oc1OCC was tested, and the T/C (dose: 18.75 mg/kg/injection, schedule: Q01DX009 (ip), vehicle: acetone) was 105 % of control, the T/C (dose: 37.5 mg/kg/injection, schedule: Q01DX009 (ip), vehicle: acetone) was 87 % of control and the T/C (dose: 37.5 mg/kg/injection, schedule: Q04DX003 (ip), vehicle: saline) was 88 % of control. For the same compound, the T/C (dose: 75.0 mg/kg/injection, schedule: Q01DX001 (ip), vehicle: saline) was 110 % of control, the T/C (dose: 75.0 mg/kg/injection, schedule: Q01DX009 (ip), vehicle: acetone) was 87 % of control and the T/C (dose: 75.0 mg/kg/injection, schedule: Q04DX003 (ip), vehicle: saline) was 90 % of control. The T/C (dose: 150.0 mg/kg/injection, schedule: Q01DX001 (ip), vehicle: saline) was 97 % of control and the T/C (dose: 150.0 mg/kg/injection, schedule: Q04DX003 (ip), vehicle: saline) was 93 % of control.

CCC(CCC(C)C1CCC2C3CC=C4CC(OC(=O)Nc5ccccc5)CCC4(C)C3CCC12C)C(C)C (centres undefined) was tested, and the T/C [16] was 87 % of control, the T/C (dose: 200.0 mg/kg/injection, schedule: Q04DX002 (ip), vehicle: saline with Tween-80) was 87 % of control and the T/C (dose: 400.0 mg/kg/injection, schedule: Q04DX002 (ip), vehicle: saline with Tween-80) was 94 % of control.

For Cc1c(O)cc(O)cc1O, the T/C [1] was 96 % of control and the T/C [2] was 98 % of control.

CC(O)C(O)C1OC(=O)C1O (centres undefined) was tested, and the T/C [17] was 94 % of control and 98 % of control, the T/C [18] was 100 % of control and 113 % of control and the T/C (dose: 400.0 mg/kg/injection, schedule: Q01DX009 (ip), vehicle: saline) was 104 % of control and 94 % of control.

For O=C1CC(=P(c2ccccc2)(c2ccccc2)c2ccccc2)C(=O)N1c1ccccc1, the T/C (dose: 50.0 mg/kg/injection, schedule: Q01DX009 (ip), vehicle: saline with Tween-80) was 100 % of control, the T/C [10] was 94 % of control and the T/C (dose: 100.0 mg/kg/injection, schedule: Q01DX009 (ip), vehicle: saline with Tween-80) was 100 % of control. The T/C [4] was 106 % of control, the T/C [11] was 102 % of control and the T/C (dose: 200.0 mg/kg/injection, schedule: Q01DX009 (ip), vehicle: saline with Tween-80) was 100 % of control. For the same compound, the T/C [5] was 109 % of control, the T/C [12] was 94 % of control and the T/C [6] was 98 % of control.

For COC(=O)C(=O)CC(=O)c1cccc(OC)c1, the T/C [19] was 93 % of control, the T/C [20] was 100 % of control and the T/C [4] was 107 % of control and 123 % of control. For the same compound, the T/C [5] was 93 % of control and 100 % of control and the T/C [6] was 103 % of control.

In the case of O=C(COc1ccc(Cl)cc1)Nc1cc(C(F)(F)F)ccc1Cl, the T/C [10] is reported as 94 % of control, the T/C [13] is reported as 98 % of control and the T/C [11] is reported as 86 % of control. The T/C [14] was 93 % of control, the T/C [12] was 86 % of control and the T/C [15] was 95 % of control.

With CCCCC(=O)N/N=C/c1ccccc1Cl the T/C [1] was 102 % of control and the T/C [2] was 104 % of control.

For CS(=O)(=O)Nc1ccc(Nc2c3ccccc3nc3cc(N)ccc23)cc1, the T/C (dose: 0.4 mg/kg/injection, schedule: Q01DX009 (ip), vehicle: saline) was 152 % of control, the T/C (dose: 1.25 mg/kg/injection, schedule: Q01DX009 (ip), vehicle: saline) was 100 % of control and the T/C (dose: 4.0 mg/kg/injection, schedule: Q01DX009 (sc), vehicle: saline) was 123 % of control. For the same compound, the T/C (dose: 5.0 mg/kg/injection, schedule: Q01DX009 (ip), vehicle: saline) was 88 % of control, the T/C (dose: 20.0 mg/kg/injection, schedule: Q01DX001 (ip), vehicle: saline) was 92 % of control and the T/C (dose: 40.0 mg/kg/injection, schedule: Q01DX001 (ip), vehicle: saline) was 89 % of control.

For COc1ccc(OC)c(C(=S)N2CCOCC2)c1, the T/C (dose: 100.0 mg/kg/injection, schedule: Q01DX001 (ip), vehicle: Klucel (hydroxypropylcellulose) (HPC)) was 94 % of control, the T/C [13] was 96 % of control and the T/C (dose: 200.0 mg/kg/injection, schedule: Q01DX001 (ip), vehicle: Klucel (hydroxypropylcellulose) (HPC)) was 102 % of control. For the same compound, the T/C [14] was 96 % of control, the T/C (dose: 400.0 mg/kg/injection, schedule: Q01DX001 (ip), vehicle: Klucel (hydroxypropylcellulose) (HPC)) was 100 % of control and the T/C [15] was 96 % of control.

For COc1cc(N=C(N)N=C(N)N)c2ncccc2c1, the T/C (dose: 75.0 mg/kg/injection, schedule: Q01DX001 (ip), vehicle: carboxymethylcellulose (CMC)) was 97 % of control.

With Nc1nc(N)c2[nH]c(CCc3ccccc3)nc2n1 the T/C [19] was 95 % of control, the T/C [20] was 91 % of control and the T/C [4] was 98 % of control.

For CCN1CCC(CNc2cc(C)nc(/N=C(\N)Nc3ccc(Cl)c(Cl)c3)n2)C1 (centres undefined), the T/C (dose: 12.5 mg/kg/injection, schedule: Q04DX003 (ip), vehicle: Klucel (hydroxypropylcellulose) (HPC)) was 98 % of control, the T/C (dose: 25.0 mg/kg/injection, schedule: Q04DX003 (ip), vehicle: Klucel (hydroxypropylcellulose) (HPC)) was 102 % of control and the T/C (dose: 50.0 mg/kg/injection, schedule: Q04DX003 (ip), vehicle: Klucel (hydroxypropylcellulose) (HPC)) was 107 % of control.

For COC(=O)C1=C(N)OC(C)(C)C1c1ccc(Cl)cc1 (centres undefined), the T/C [1] was 100 % of control, the T/C [2] was 94 % of control and the T/C [3] was 97 % of control.

In the case of CN(C)c1ccc(C=NCCCNC2CCCCC2)cc1, the T/C (dose: 25.0 mg/kg/injection, schedule: Q04DX003 (ip), vehicle: other) is reported as 94 % of control, the T/C (dose: 50.0 mg/kg/injection, schedule: Q04DX003 (ip), vehicle: other) is reported as 102 % of control and the T/C [1] is reported as 88 % of control.
